According to patent publication US6706509B2, “Oncoprotein protein kinase” (The Regents of the University of California, priority 1993, dated 2004):

How the values were obtained:
JNK1 = experiment: Epitope-tagged JNK1 protein kinase activity in transfected COS cells; format: cell-based; conditions: 10 nM EGF or 100 nM TPA
Protocol: JNK1 protein kinase activity was detected in the immune-complex. Immunecomplex kinase assays using either M2 immunoprecipitates or purified JNK1, JNK-46, and ERK1 or ERK2 were performed at 30° C. for 20 mins using 3 μg of substrate, 20 μM ATP and 5 μCi of [γ-^32P]ATP in 30 μl of kinase buffer (25 mM Hepes (pH 7.6), 20 mM MgCl2, 20 mM β-glycerophosphate, 20 mM p-nitrophenyl phosphate, 0.1 mM Na orthovanadate, 2 mM DTT). The reactions were terminated with Laemmli sample buffer and the products were resolved by SDS-PAGE (12% gel). JNK1 protein activity was also measured after SDS-PAGE by the in-gel kinase assay with the substrate GST-cJun(1-79) as described by Hibi, et al., supra, (1993). Solid-phase protein kinase assays were performed as described by Hibi, et al., supra, (1993). Clarified cell extracts were incubated with GST fusion proteins immobilized on GSH-agarose beads. After 3 hours at 4° C., the beads were washed extensively and bound JNK1 was detected by the addition of [γ-^32P]ATP. The reaction was terminated after 10 mins at 30° C. and the products were resolved by SDS-PAGE. The incorporation of [^32P]phosphate was visualized by autoradiography and quantitated with a phosphorimager and ImageQuant software (Molecular Dynamics Inc., Sunnyvale, Calif.). The methods used for phosphopeptide mapping (Boyle, et al., Cell 64:573-584, 1991) and phosphoamino acid analysis (Alvarez, et al., J. Biol. Chem 266:15227-15285, 1991) were described previously.
Epitope-tagged JNK1 was expressed in COS cells. Control experiments were performed using mock-transfected cells. After 48 hours, the cells were treated either without or with 100 nM TPA, 10 nM EGF, or 80 J/m^2 UV-C and incubated for 1 hr. The cells were lysed in RIPA buffer and the JNK1 proteins were isolated by immunoprecipitation with the M2 monoclonal antibody. JNK1 protein kinase activity was measured after SDS-PAGE using an in-gel kinase assay with the substrate GST-cJun(1-79) polymerized into the gel.
COS-1 cells were maintained in. Dulbecco's modified Eagle's medium supplemented with 5% […] (Gibco-BRL). Metabolic labeling with [^32P]phosphate was performed by incubation of cells in phosphate-free modified Eagle's medium (Flow Laboratories Inc.) supplemented with 0.1% fetal bovine serum and 1 mCi/ml [^32P]orthophosphate (Dupont-NEN). COS cells were treated with 10 nM EGF or 100 nM thorbol myristate acetate. The cells were then incubated for defined times at 37° C. prior to harvesting and measurement of JNK1 protein kinase activity. The data are presented as arbitrary units. […] In contrast, exposure to UV radiation caused a marked increase in JNK1 activity.

ERK2 = ERK2 MBP-kinase activity after anti-ERK2 immunoprecipitation, Jurkat cells; format: cell-based, human
Protocol: WCE (50 μg) of Jurkat cells treated as described above were incubated with GSTcJun(1-223)-GSH agarose beads and assayed for JNK activity using the solid-state kinase assay. The same WCE (20 μg) were immunoprecipitated with anti-ERK2 antibodies and assayed for MBP-kinase activity.
WCE (50 μg) of Jurkat cells treated as described in Panel A with various stimuli alone or their combinations were incubated with GSTcJun(1-223)-GSH agarose beads and assayed for JNK activity using solid-state kinase assay. The same samples (20 μg) were also assayed for MBP-kinase activity as described in FIG. 16B.

c-fos = experiment: Northern blot of c-fos expression in Jurkat cells; format: cell-based, human
Protocol: (§1) Exponentially growing Jurkat cells (10^6/ml) grown in complete RPMI medium was pretreated with CsA for 15 minutes when applicable, then subjected to various treatments for another 40 minutes. Total cytoplasmic RNA was extracted as previously described (Angel, et al., Cell, 49:729-739, 1987). 10 μg RNA was denatured by incubating with glyoxal for 60 minutes at 55° C. and fractionated on a 1% agarose gel in phosphate buffer. The fractionated RNA was blotted to Zetabind Nylon membrane (CUNO Labs) and hybridized to ^32P-labelled cDNA probes specific for c-jun, jun-B, jun-D, c-fos, α-tubulin and IL-2.
(§2) During the first stage of T lymphocyte activation, early response genes are rapidly included (Crabtree, Science, 243:355,361, 1989; Zipfel, et al., Mol Cell Bio., 9:1041-1048, 1989). […] After fractionation of 10 μg samples on an agarose gel and transfer to nylon membrane, the level of c-jun, jun-B, jun-D, c-fos and α-tubulin expression was determined by hybridization to random primed cDNA probes.
(§3) Second, Jurkat cells were incubated with 10 μg/ml soluble anti-CD3 (OKT3), 2 μg/ml soluble anti-CD28 (9.3) or a combination of 50 ng/ml TPA and 1 μg/ml A23817 (T/A) as indicated for 40 minutes. Total cytoplasmic RNA was isolated and 10 μg samples were analyzed as described above using c-jun, jun-D and c-fos probes. […]

c-jun = experiment: Northern blot of c-jun expression in Jurkat cells; format: cell-based, human
Protocol: as §1, §2, §3

## CCCCCCCCCCCCCC(=O)O[C@@H]1[C@@H](C)[C@@]2(O)[C@@H](C=C(CO)C[C@]3(O)C(=O)C(C)=C[C@@H]23)[C@H]2C(C)(C)[C@]12OC(C)=O [TPA]
JNK1
  JNK1 activation: low level of JNK1 activation
  duration of JNK1 activation: approximately 2 hours
ERK2
  ERK2 activation, suboptimal dose of TPA by itself: partial activation of ERK2

## anti-CD3: anti-CD3 monoclonal antibody OKT3
c-fos; soluble anti-CD3, 40 minutes
  c-fos expression, agent alone: induction
c-jun; soluble anti-CD3, 40 minutes
  c-jun expression, agent alone: induction

## cyclosporin A [CsA]
ERK2; CsA 100 ng/ml
  ERK2 activation by anti-CD3, effect of CsA: nor was it inhibited
c-fos; CsA 100 ng/ml, 40 minutes
  effect on maximal induction of c-fos by TPA+A23187: not inhibited
c-jun; CsA 100 ng/ml with TPA+A23187 or anti-CD3+anti-CD28, 40 minutes
  effect on synergistic induction of c-jun by both costimulatory paradigms: partially inhibited
